Consider 19 compounds from patent publication US9938273B2 (Plexxikon Inc., priority 2015, dated 2018).

This assay deals with MOLM-14 D835Y cells, FLT3 ITD and FLT3 D835Y. As to the kind of experiment: Cell proliferation assay (CellTiter-Glo), MOLM-14 D835Y. Type of assay: cell-based. The note with it: Homo sapiens, 72 h, 3d-Growth, GMean. The essentials: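 Three-day growth at 37 °C, 5% CO2 under compound (1 μM top final, 1:3 dilutions, eight points, 0.2% DMSO), read as ATP luminescence by CellTiter-Glo for IC50. Cells: MOLM-14 with FLT3 ITD plus D835Y or F691L, and IL-3-deprived Ba/F3 transfected with FLT3 ITD/D835Y, 1×10^4 per well.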
For orientation: ATP-based viability assays read luminescence as a measure of living cells.

One may read the IC50 as the concentration needed to halve the response being measured. Regarding `CC(C)Oc1ccc(-c2cc3cc(-c4cccc(C(=O)NC(C)(C)C#N)n4)cnc3[nH]2)cn1` [Compound P-0190, N-(1-cyano-1-methyl-ethyl)-6-[2-(6-isopropoxy-3-pyridyl)-1H-pyrrolo[2,3-b]pyridin-5-yl]pyridine-2-carboxamide], the IC50 was 0.0001 to 10 µM.

The compound `CC(C)Oc1ncc(-c2cc3cc(-c4cccc(C(=O)NC(C)(C)C#N)n4)cnc3[nH]2)cn1` [Compound P-0191, N-(1-cyano-1-methyl-ethyl)-6-[2-(2-isopropoxypyrimidin-5-yl)-1H-pyrrolo[2,3-b]pyridin-5-yl]pyridine-2-carboxamide] displayed an IC50 of 0.0001 to 10 µM.

`Cc1nn(C(C)C)cc1-c1[nH]c2ncc(-c3cccc(C(=O)NC(C)(C)C#N)n3)cc2c1Cl` [Compound P-0192] showed an IC50 of 0.0001 to 10 µM.

With `CC(C)(C#N)NC(=O)c1cccc(-c2cnc3[nH]c(-c4cnn(CC(F)(F)F)c4)cc3c2)n1` [Compound P-0193, N-(1-cyano-1-methyl-ethyl)-6-[2-[1-(2,2,2-trifluoroethyl)pyrazol-4-yl]-1H-pyrrolo[2,3-b]pyridin-5-yl]pyridine-2-carboxamide], the IC50 lay within 0.0001 to 10 µM. Compound `CC(C)(C#N)NC(=O)c1cccc(-c2cnc3[nH]c(-c4ccc(C5(C#N)CC5)cc4)cc3c2)n1` [Compound P-0194, 6-[2-[4-(1-cyanocyclopropyl)phenyl]-1H-pyrrolo[2,3-b]pyridin-5-yl]-N-(1-cyano-1-methyl-ethyl)pyridine-2-carboxamide] had a half-maximal inhibitory concentration (IC50) of 0.0001 to 10 µM. For the compound `CC(C)(C#N)NC(=O)c1cccc(-c2cnc3[nH]c(-c4cncnc4)cc3c2)n1` [Compound P-0195, N-(1-cyano-1-methyl-ethyl)-6-(2-pyrimidin-5-yl-1H-pyrrolo[2,3-b]pyridin-5-yl)pyridine-2-carboxamide], the IC50 is 0.0001 to 10 µM.

As to `COc1ncc(-c2cc3cc(-c4cccc(C(=O)NC(C)(C)C#N)n4)cnc3[nH]2)cn1` [Compound P-0196, N-(1-cyano-1-methyl-ethyl)-6-[2-(2-methoxypyrimidin-5-yl)-1H-pyrrolo[2,3-b]pyridin-5-yl]pyridine-2-carboxamide], the IC50 was 0.0001 to 10 µM.

Consider `CC(C)(C#N)NC(=O)c1cccc(-c2cnc3[nH]c(-c4ccc(N5CCOCC5)nc4)cc3c2)n1` [Compound P-0197, N-(1-cyano-1-methyl-ethyl)-6-[2-(6-morpholino-3-pyridyl)-1H-pyrrolo[2,3-b]pyridin-5-yl]pyridine-2-carboxamide], for which the IC50 fell in the range of 0.0001 to 10 µM. As for `CC(C)(C#N)NC(=O)c1cccc(-c2cnc3[nH]c(-c4cnc(N5CCOCC5)nc4)cc3c2)n1` [Compound P-0198, N-(1-cyano-1-methyl-ethyl)-6-[2-(2-morpholinopyrimidin-5-yl)-1H-pyrrolo[2,3-b]pyridin-5-yl]pyridine-2-carboxamide], the figure is 0.0001 to 10 µM; as for `CC(C)(C#N)NC(=O)c1cccc(-c2cnc3[nH]c(-c4cccc(N5CCCS5(=O)=O)c4)cc3c2)n1` [Compound P-0199, N-(1-cyano-1-methyl-ethyl)-6-[2-[3-(1,1-dioxo-1,2-thiazolidin-2-yl)phenyl]-1H-pyrrolo[2,3-b]pyridin-5-yl]pyridine-2-carboxamide], 0.0001 to 10 µM. Then `CC(C)(NC(=O)c1cccc(-c2cnc3[nH]c(-c4cnn(C5CCNCC5)c4)cc3c2)n1)C(N)=O` [Compound P-0200, N-(2-amino-1,1-dimethyl-2-oxo-ethyl)-6-[2-[1-(4-piperidyl)pyrazol-4-yl]-1H-pyrrolo[2,3-b]pyridin-5-yl]pyridine-2-carboxamide], with 0.0001 to 10 µM; and `CC(C)(C#N)NC(=O)c1cccc(-c2cnc3[nH]c(-c4ccc(C(F)(F)F)nc4)cc3c2)n1` [Compound P-0201, N-(1-cyano-1-methyl-ethyl)-6-[2-[6-(trifluoromethyl)-3-pyridyl]-1H-pyrrolo[2,3-b]pyridin-5-yl]pyridine-2-carboxamide], with 0.0001 to 10 µM; and `CC(C)(C#N)NC(=O)c1cccc(-c2cnc3[nH]c(-c4cnc(N5CCCC5)nc4)cc3c2)n1` [Compound P-0202, N-(1-cyano-1-methyl-ethyl)-6-[2-(2-pyrrolidin-1-ylpyrimidin-5-yl)-1H-pyrrolo[2,3-b]pyridin-5-yl]pyridine-2-carboxamide], with 0.0001 to 10 µM.

With `CCOc1ncc(-c2cc3cc(-c4cccc(C(=O)NC(C)(C)C#N)n4)cnc3[nH]2)cn1` [Compound P-0203, N-(1-cyano-1-methyl-ethyl)-6-[2-(2-ethoxypyrimidin-5-yl)-1H-pyrrolo[2,3-b]pyridin-5-yl]pyridine-2-carboxamide], the IC50 fell in the range of 0.0001 to 10 µM. Then `CC(C)(C#N)NC(=O)c1cccc(-c2cnc3[nH]c(-c4cnc(C(F)(F)F)nc4)cc3c2)n1` [Compound P-0204, N-(1-cyano-1-methyl-ethyl)-6-[2-[2-(trifluoromethyl)pyrimidin-5-yl]-1H-pyrrolo[2,3-b]pyridin-5-yl]pyridine-2-carboxamide], with 0.0001 to 10 µM; and `CCc1ncc(-c2cc3cc(-c4cccc(C(=O)NC(C)(C)C#N)n4)cnc3[nH]2)cn1` [Compound P-0205, N-(1-cyano-1-methyl-ethyl)-6-[2-(2-ethylpyrimidin-5-yl)-1H-pyrrolo[2,3-b]pyridin-5-yl]pyridine-2-carboxamide], with 0.0001 to 10 µM; and `CCCOc1ncc(-c2cc3cc(-c4cccc(C(=O)NC(C)(C)C#N)n4)cnc3[nH]2)cn1` [Compound P-0206, N-(1-cyano-1-methyl-ethyl)-6-[2-(2-propoxypyrimidin-5-yl)-1H-pyrrolo[2,3-b]pyridin-5-yl]pyridine-2-carboxamide], with 0.0001 to 10 µM. Compound `CC(C)(C#N)NC(=O)c1cccc(-c2cnc3[nH]c(-c4ccc(F)nc4)cc3c2)n1` [Compound P-0208, N-(1-cyano-1-methyl-ethyl)-6-[2-(6-fluoro-3-pyridyl)-1H-pyrrolo[2,3-b]pyridin-5-yl]pyridine-2-carboxamide] registered an IC50 of 0.0001 to 10 µM.

Compound `CC(C)(C#N)NC(=O)c1cccc(-c2cnc3[nH]c(-c4cnc(C(C)(C)O)nc4)cc3c2)n1` [Compound P-0211, N-(1-cyano-1-methyl-ethyl)-6-[2-[2-(1-hydroxy-1-methyl-ethyl)pyrimidin-5-yl]-1H-pyrrolo[2,3-b]pyridin-5-yl]pyridine-2-carboxamide] gave an IC50 of 0.0001 to 10 µM.
